From ChEMBL document CHEMBL1201862, “PubChem BioAssay data set” (2004)
The source made the active and inactive calls.

Experiments:
[1] = fluconazole-exposed Candida albicans growth modulators – fluorescence, retest, confirmation (AID 2467); assay type: functional, cell-based
[2] = NIH-3T3 fibroblast cytotoxicity, dose response, cytotoxicity control, cell-based, fluorescence, Alamar Blue, secondary assay (AID 2327); assay type: functional;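 note: NIH-3T3 mouse fibroblasts cultured with fluconazole at 8 µg/mL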
[3] = target: ATP-dependent molecular chaperone HSP82 (Candida albicans (strain WO-1) (Yeast), UniProt C4YTQ8); experiment: steroid-induced GRE reporter decrease in yeast – S. cerevisiae, luminescence, Hsp90 inhibitor project, dose response (AID 2400); assay type: functional, cell-based;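 note: beta-galactosidase luminescence from glucocorticoid response element reporter as proxy for Hsp90 function; inhibitor potency where signal loss means Hsp90 inhibition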
Chain of ATP-dependent molecular chaperone HSP82 (C4YTQ8 whole entry): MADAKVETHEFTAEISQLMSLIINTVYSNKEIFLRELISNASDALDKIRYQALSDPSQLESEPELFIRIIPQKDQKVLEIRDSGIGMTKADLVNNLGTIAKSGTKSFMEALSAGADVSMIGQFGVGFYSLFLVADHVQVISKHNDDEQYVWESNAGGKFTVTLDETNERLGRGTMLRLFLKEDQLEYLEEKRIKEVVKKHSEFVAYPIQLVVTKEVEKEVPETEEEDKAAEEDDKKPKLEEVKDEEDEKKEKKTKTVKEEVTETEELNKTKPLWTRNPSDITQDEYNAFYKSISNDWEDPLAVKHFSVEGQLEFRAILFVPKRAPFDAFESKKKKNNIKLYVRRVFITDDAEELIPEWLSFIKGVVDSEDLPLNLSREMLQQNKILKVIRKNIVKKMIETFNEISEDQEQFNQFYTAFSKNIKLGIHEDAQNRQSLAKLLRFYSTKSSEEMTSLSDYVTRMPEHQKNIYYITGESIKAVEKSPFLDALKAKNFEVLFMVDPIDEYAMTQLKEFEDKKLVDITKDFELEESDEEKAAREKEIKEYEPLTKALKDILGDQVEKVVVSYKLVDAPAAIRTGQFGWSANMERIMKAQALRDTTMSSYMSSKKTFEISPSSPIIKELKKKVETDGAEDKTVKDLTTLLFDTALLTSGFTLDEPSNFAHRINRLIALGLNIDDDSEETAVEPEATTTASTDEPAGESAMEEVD

[4] = target: T1, Serine/threonine-protein phosphatase (Candida dubliniensis (strain CD36 / CBS 7987 / NCPF 3949 / NRRLY-17841) (Yeast), UniProt B9W6M3); experiment: blockers of CaCl2-induced CDRE-lacZ signaling – S. cerevisiae, luminescence, secondary, dose response (AID 2388); assay type: functional, cell-based;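 note: yeast reporter cells carrying a calcineurin-responsive lacZ construct stimulated with calcium chloride; luminescent beta-galactosidase reporter signal in whole cells rather than isolated phosphatase activity; potency for inhibition where a drop in reporter signal means calcineurin blockade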
T1 sequence (B9W6M3 whole entry): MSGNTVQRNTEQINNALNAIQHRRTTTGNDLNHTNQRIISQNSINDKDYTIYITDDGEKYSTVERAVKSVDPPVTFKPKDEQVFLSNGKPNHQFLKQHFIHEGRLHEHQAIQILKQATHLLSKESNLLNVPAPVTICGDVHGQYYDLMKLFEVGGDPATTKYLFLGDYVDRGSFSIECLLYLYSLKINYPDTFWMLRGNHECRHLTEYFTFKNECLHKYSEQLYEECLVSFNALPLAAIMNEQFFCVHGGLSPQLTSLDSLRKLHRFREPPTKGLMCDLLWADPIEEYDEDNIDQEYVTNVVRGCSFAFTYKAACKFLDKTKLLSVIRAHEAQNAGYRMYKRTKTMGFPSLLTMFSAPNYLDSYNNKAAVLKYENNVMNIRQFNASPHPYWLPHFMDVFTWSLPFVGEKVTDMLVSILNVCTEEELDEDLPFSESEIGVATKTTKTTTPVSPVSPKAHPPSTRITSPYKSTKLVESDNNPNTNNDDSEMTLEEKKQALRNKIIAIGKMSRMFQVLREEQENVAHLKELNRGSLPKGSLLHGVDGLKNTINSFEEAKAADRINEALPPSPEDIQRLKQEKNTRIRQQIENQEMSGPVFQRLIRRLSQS

Vero [5] = experiment: cells; assay type: functional; details: Chlorocebus sabaeus
Cytochrome P450 2C9 = Cytochrome P450 2C9 (Homo sapiens, UniProt P11712)
Chain of Cytochrome P450 2C9 (P11712 whole entry): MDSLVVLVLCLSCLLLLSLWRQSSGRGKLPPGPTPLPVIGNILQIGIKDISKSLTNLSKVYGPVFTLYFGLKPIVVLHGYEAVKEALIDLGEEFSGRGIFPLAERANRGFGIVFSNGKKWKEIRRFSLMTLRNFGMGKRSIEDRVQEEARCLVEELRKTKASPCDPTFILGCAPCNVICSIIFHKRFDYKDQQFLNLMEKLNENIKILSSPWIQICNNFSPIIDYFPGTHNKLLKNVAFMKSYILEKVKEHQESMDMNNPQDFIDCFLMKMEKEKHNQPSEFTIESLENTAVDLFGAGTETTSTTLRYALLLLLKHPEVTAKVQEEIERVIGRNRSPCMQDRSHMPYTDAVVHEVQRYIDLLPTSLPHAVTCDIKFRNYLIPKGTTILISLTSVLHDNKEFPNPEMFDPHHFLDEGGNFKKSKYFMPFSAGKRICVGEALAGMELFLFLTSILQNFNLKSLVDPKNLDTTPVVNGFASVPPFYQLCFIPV

[6] = target: Eukaryotic translation initiation factor 4E (Mus musculus, UniProt P63073); experiment: blockers of eIF4G binding by eIF4E – biochemical, TR-FRET, dose response (AID 855); assay type: functional;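 note: potency for disrupting eIF4E binding to eIF4GI seen as loss of FRET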
Chain of Eukaryotic translation initiation factor 4E (P63073 whole entry): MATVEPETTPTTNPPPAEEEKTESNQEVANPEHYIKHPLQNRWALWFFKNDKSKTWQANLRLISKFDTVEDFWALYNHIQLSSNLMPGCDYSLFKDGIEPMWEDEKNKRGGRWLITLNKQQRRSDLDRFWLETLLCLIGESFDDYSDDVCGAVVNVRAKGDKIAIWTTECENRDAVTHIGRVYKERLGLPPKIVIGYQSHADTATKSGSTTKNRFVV

Vero [7] = experiment: cells; assay type: functional, cell-based; details: Chlorocebus sabaeus
[8] = target: T2, Probable nicotinate-nucleotide adenylyltransferase (Staphylococcus aureus (strain N315), UniProt P65502); assay type: functional, Staphylococcus aureus subsp. aureus N315; details: read-out: IC50_Mean;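 for IC50 Mean: confirmatory dose-response retesting of NadD inhibitor hits first found in an ultra-high-throughput screen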
T2 sequence (P65502 whole entry): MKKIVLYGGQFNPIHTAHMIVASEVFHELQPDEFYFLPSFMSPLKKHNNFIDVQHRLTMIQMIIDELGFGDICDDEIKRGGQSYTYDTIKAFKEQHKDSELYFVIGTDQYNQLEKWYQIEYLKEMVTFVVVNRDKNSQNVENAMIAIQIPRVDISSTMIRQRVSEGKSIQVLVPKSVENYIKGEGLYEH

Streptococcus = experiment: GAS UMAA2166 growth inhibition – luminescence, BacTiterGlo, counter-screen for streptokinase expression inhibitor project, dose response (AID 1915); assay type: functional, organism-based;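 note: potency for reduction of bacterial viability or growth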
[9] = target: T2, Probable nicotinate-nucleotide adenylyltransferase; assay type: functional, Staphylococcus aureus subsp. aureus N315
[10] = tested on: Streptococcus sp. 'group A'; experiment: Streptococcus pyogenes SK(-)GAS viability under kanamycin – luminescence, BacTiterGlo, confirmation, counter-screen for streptokinase expression inhibitor project, dose response (AID 1900); assay type: functional, organism-based
[11] = activation of miR-122 Renilla sensor silencing – cell-based, Huh7 psiCHECK-miR122, Renilla luciferase, cherry-picked, dose response (AID 651956); assay type: functional;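 note: huh7 hepatoma cells stably carrying a psiCHECK-2 miR-122 sensor plasmid; renilla luciferase signal reporting endogenous miR-122 activity after 48 h compound exposure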
[12] = reduction of Shn3 3'UTR-driven luciferase in osteoblasts – cell-based, Clone20 osteoblasts, firefly luciferase, cherry-picked, dose response (AID 624132); assay type: functional;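 note: firefly luciferase luminescence from reporter carrying the Shn3 3'UTR in osteoblasts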
[13] = non-specific 3'UTR reporter inhibition in Clone20-Shn3RL – cell-based, Renilla luciferase, cherry-picked, counter-screen for Shn3 inhibitor project, dose response (AID 624133); assay type: functional
Beta Lactamase = Beta Lactamase (Pseudomonas aeruginosa, UniProt Q932Y6); experiment: BLA reporter interference, concentration series – BLA reporter cells, FRET fluorescence, artefact control for NOD2-RIPK2 interaction inhibitor project, dose response (AID 651552); assay type: functional, cell-based
Chain of Beta Lactamase (Q932Y6 whole entry, the tested form may be a part): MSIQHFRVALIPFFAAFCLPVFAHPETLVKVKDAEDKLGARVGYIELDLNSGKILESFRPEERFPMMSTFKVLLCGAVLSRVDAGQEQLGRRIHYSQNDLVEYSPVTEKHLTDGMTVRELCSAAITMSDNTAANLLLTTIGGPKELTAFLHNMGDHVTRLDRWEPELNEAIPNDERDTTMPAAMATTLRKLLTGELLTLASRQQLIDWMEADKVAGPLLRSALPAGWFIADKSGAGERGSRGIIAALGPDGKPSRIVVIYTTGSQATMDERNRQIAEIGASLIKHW

[14] = Fluorescence-based cell-based high throughput dose response assay for inhibitors of the interaction of nucleotide-binding oligomerization domain containing 2 (NOD2) and the receptor-interacting serine-threonine kinase 2 (RIPK2).; assay type: functional; details: Homo sapiens
[15] = reduced cellular PGC1a acetyl-lysine signal – cell-based, cherry-picked samples, dose response (AID 720514); assay type: functional;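 note: potency may reflect raised or lowered acetylation signal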

CN(C)S(=O)(=O)Oc1cccc(C(=O)Nc2cccc(Cl)c2)c1
EC50 [1]: 2.39 µM (active)
EC50 [2]: > 150 µM (inactive)
EC50 [3]: 24.7 µM (active)
EC50 [4]: > 180 µM (inactive)

COc1ccccc1/C=C/C(=O)c1c(O)nc(C)c2c1CCCC2
CC50 (Vero [5]): > 25 µM (active)
AC50 (Cytochrome P450 2C9): inconclusive
IC50 [6]: 50 µM (inactive)
IC50 (Vero [7]): 20.3 µM (active)

COc1ccc(C2c3ccc4ccccc4c3Oc3ncn(CCN4CCOCC4)c(=N)c32)cc1 (configuration not stated)
EC50 [1]: 1.9 µM (active)
EC50 [2]: > 160 µM (inactive)
EC50 [3]: > 160 µM (inactive)
EC50 [4]: > 180 µM (inactive)

N=C1SC(c2ccccc2)C(=O)N1c1ncc(Cc2ccccc2Cl)s1 (configuration not stated)
IC50 [8]: 16 µM (active)
EC50 (Streptococcus): 3.47 µM (active)
IC50 [9]: 4.35 µM (active)
EC50 [10]: 0.249 µM (active)

COc1ccc(S(=O)(=O)Nc2cc(C)cc(C)n2)c2ccccc12
AC50 [11]: 13.4 µM (active)

COc1ccc(CC2NCC(O)C2OC(C)=O)cc1 (configuration not stated)
AC50 [12]: < 0.26 µM (active)
AC50 [13]: 1.09 µM (active)
IC50 (Beta Lactamase): 49.7 µM (inactive)
IC50 [14]: 49.7 µM (inactive)
AC50 [15]: 0.308 µM (active)
